Measured values published in patent US20100291564A1, “Methods for Detection of Micro-Organisms” (MICROSEN MEDTECH LIMITED, priority 2007, published 2010).

Columns and labels:
Staph. aureus = assay: Sensitivity of Staph. aureus cells to antibiotic, NAD-dependent ligase detection (LiMA-2, Taq-Man real time PCR); assay type: cell-based, Staphylococcus aureus; settings: 10^4 cells added to culture medium, after 4 hours in the presence of antibiotic
Protocol: FIG. 5. Sensitivity of Staph. aureus cells to antibiotic. […]
Take 1 ml fresh Staph. aureus culture (10^6 cells/μl), spin 8000 rpm 5 min, resuspend pellet in 1 ml deionised water Dilute in a series of 10 fold dilutions down to 10^2 cells/μl
After ligation step above add 2 μl of following nuclease mix to each tube:
Add 2 μl to PCR mastermix, cycles were:
The detection limit in this experiment was estimated to be between 10 and 100 cells.

E. coli = assay: Drug susceptibility testing by NAD-dependent ligase mediated PCR assay; assay type: cell-based, Escherichia coli; settings: for Cycle at which PCR was positive: plus gentamicin 50 μg/ml
From the text: The PCR signal generated is related to the number of ligated molecules of the DNA substrate which in turn is related to the number of ligase molecules present. In turn, the number of molecules of ligase present is dependent on the viability of the bacterium. Upon culture of a given bacterium, if the bacteria are healthy, growing and increasing in number there will be progressively more ligase present which will generate more ligation and more PCR signal. If the bacteria are unhealthy and non-viable or dying there will be no increase in ligase on culture and the number of ligase molecules might even be expected to decrease which will be reflected in the amount of ligation and PCR signal generated. In this example we have tested the susceptibility of the organism to an antibiotic. By culturing in the presence and absence of antibiotic we can compare the signal generated from the bacterial ligase at different time points. Additionally, the experiment can be performed with and without the addition of the NAD+ cofactor. In the presence of added cofactor the ligase can cycle through many ligation steps. In the absence of added cofactor the ligase must depend on endogenous bacterial NAD+ for ligation. These two conditions, therefore are two different measures of the health of the bacterial cell
1. 10 ml of media (LB broth) containing 50 μg/ml gentamicin was inoculated with […] E. coli bacteria/ml and incubated for 3 hours. At 30 min time points 1 ml of the culture was removed and placed on ice until completion of the time course.
2. The bacteria were then pelleted by centrifugation at 6,000×g for 5 min and the supernatant removed.
3. The protocol from this stage was identical to steps 3 to 8 in example 1 except that the ligase reaction was performed with and without added NAD+.

Row | Compound | fall of NAD-dependent ligase content (Staph. aureus) | Cycle at which PCR was positive (E. coli; With added NAD+, time 0 min) | Cycle at which PCR was positive (E. coli; With added NAD+, time 30 min) | Cycle at which PCR was positive (E. coli; With added NAD+, time 60 min) | Cycle at which PCR was positive (E. coli; With added NAD+, time 90 min) | Cycle at which PCR was positive (E. coli; With added NAD+, time 120 min) | Cycle at which PCR was positive (E. coli; With added NAD+, time 150 min) | Cycle at which PCR was positive (E. coli; With added NAD+, time 180 min) | Cycle at which PCR was positive (E. coli; Without added NAD+, time 0 min) | Cycle at which PCR was positive (E. coli; Without added NAD+, time 30 min) | Cycle at which PCR was positive (E. coli; Without added NAD+, time 60 min) | Cycle at which PCR was positive (E. coli; Without added NAD+, time 90 min) | Cycle at which PCR was positive (E. coli; Without added NAD+, time 120 min) | Cycle at which PCR was positive (E. coli; Without added NAD+, time 150 min) | Cycle at which PCR was positive (E. coli; Without added NAD+, time 180 min) | signal from the bacterial ligase (E. coli; in the presence of gentamicin 50 μg/ml, incubation up to 3 hours)
1 | Cc1onc(-c2ccccc2)c1C(=O)N[C@@H]1C(=O)N2[C@@H]1SC(C)(C)[C@@H]2C(=O)O [oxacillin] | > 2×10^3 fold |  |  |  |  |  |  |  |  |  |  |  |  |  |  | 
2 | gentamicin |  | 26.2 | 25.1 | 25.7 | 26.2 | 27.2 | 26.8 | 26.3 | 29.5 | 29.4 | 31.6 | 30.1 | 30.3 | 29.4 | 30.1 | does not increase with incubation
